Experimental findings from patent US6352982B1, “4,1-benzoxazepines, their analogues, and their use as somatostatin agonists” (Takeda Chemical Industries, Ltd., priority 1997, dated 2002) are described below.

Where a name gives a salt, the structure may show the parent alone.

In experiment [1] the target is T1, human somatostatin receptor SSTR2 (Homo sapiens, UniProt P30874).
T1 construct: expressed in transfected cells; host or cells: CHO (dhfr-) cells, strain SSTR2-HS5-9
The experiment can be described thus: Binding inhibition of 125I-somatostatin, CHO cell membrane fraction. The note with it: 125I-somatostatin binding, 25° C. for 60 minutes, read-out: Activities for human somatostatin receptor (IC50 value) SSTR2. The method, then: (§1) A human somatostatin receptor expression CHO cell strain, SSTR1-8-3, SSTR2-HS5-9, SSTR3-15-19, SSTR4-1-2 or SSTR5-32-4 (10^9), was suspended in a phosphate buffered saline containing 5mM of EDTA (PBS-EDTA). The suspension was centrifuged. To the cell pellet was added 10 ml of a homogenation buffer solution for cells (10 mM NaHCO3, 5 mM EDTA, pH=7.5). The mixture was homogenized by a Politron homogenizer and centrifuged at 400×g for 15 minutes. The supernatant obtained was farther centrifuged at 100,000×g for an hour to obtain a precipitate of the membrane fraction. The precipitate was suspended in 2 ml of a buffer solution for assay ([…], 0.1% of BSA (bovine serum albumin) and […], 1 μ/ml of pepstatin, 20 μg/ml of leupeptin, 10 μg/ml of phosphoramide, pH=7.5). The suspension was centrifuged at […] for an hour. The membrane fraction recovered as precipitate was suspended again in 20 ml of buffer solution for assay. The suspension was placed in tubes and stored at −80° C. The suspension was thawed when used, and used at every use.
(§2) The membrane fraction prepared in Example 1 was diluted with a buffer solution for assay to adjust the concentration to 3 μg/ml. The diluate was placed in tubes each in quantity of 173 μl. To this were simultaneously added 2 μl of a solution of a compound in DMSO and 25μl of a 200pM radioisotope-labeled somatostatin (^125I-somatostatin: Amersham) solution. For measurement of the maximum binding, a reaction mixture added with 2 μl of DMSO and 25μl of a 200pM ^125I-somatostatin solution was prepared. For measurement of non-specific binding, a reaction mixture added with 2 μl of a 100 μM somatostatin solution diluted in DMSO and 25 μl of a 200pM ^125I-somatostatin solution was prepared at the same time. The mixtures were allowed to react at 25° C. for 60 minutes. Then, the reaction mixture was filtered by aspiration using a GF/B glass fiber filter paper (Whatman) treated with polyethylenimine. After filtration, the radioactivity of 125I-somatostatin remaining on the filter paper was measured by a γ-counter.
(§3) The binding rate (%) of each compound was calculated by the formula: […]
(§4) (where PBM: Percent maximum Binding, B: radioactivity when a compound was added, Bo: maximum binding radioactivity, NSB: non-specific binding radioactivity). The binding rates were calculated by changing the concentrations of the compound to obtain the 50% inhibiting concentration of the compound (IC50 value) by the Hil l plots.
(§5) The activities (IC50 value, μM) of the compounds for each human somatostatin receptor obtained by the above method are shown in the following Table 5.

Experiment [2] addresses T2, human somatostatin receptor SSTR3 (Homo sapiens, UniProt P32745).
T2 construct: expressed in transfected cells; host or cells: CHO (dhfr-) cells, strain SSTR3-15-19
The experiment is described as above. The note with it: 125I-somatostatin binding, 25° C. for 60 minutes, read-out: Activities for human somatostatin receptor (IC50 value) SSTR3. As to the method:
as §1, §2, §3, §4, §5

For experiment [3], the target named is T3, human somatostatin receptor SSTR5 (Homo sapiens, UniProt P35346).
T3 construct: expressed in transfected cells; host or cells: CHO (dhfr-) cells, strain SSTR5-3-2-4 (also printed SSTR5-32-4)
The experiment is described as above. The settings on record: 125I-somatostatin binding, 25° C. for 60 minutes, read-out: Activities for human somatostatin receptor (IC50 value) SSTR5. The method, then: as §1, §2, §3, §4, §5

The target in experiment [4] is T4, human somatostatin receptor SSTR4 (Homo sapiens, UniProt P31391).
T4 construct: expressed in transfected cells; host or cells: CHO (dhfr-) cells, strain SSTR4-1-2
The experiment is described as above. The settings on record: 125I-somatostatin binding, 25° C. for 60 minutes, read-out: Activities for human somatostatin receptor (IC50 value) SSTR4. As to the method: as §1, §2, §3, §4, §5

For the next experiment, the system named is Sprague-Dawley (SD) rats. The experiment can be described thus: Inhibition of GH secretion using Sprague-Dawley rats. It counts as in vivo, rat. The settings on record: male SD rats, 3 mg/kg intraperitoneally. The method, then: Male rats of SD strain were divided into the compound treatment group (n=5) and the control group (n=4). The rats in the compound treatment group were administered intraperitoneally with 0.5% methylcellulose saline solution containing the compound of Example 5 in the concentration of 3 mg/kg/5 ml, and the animals of the control group were administered intraperitoneally with 5 ml/kg of 0.5% methylcellulose saline solution. Four hours after administration, the rats were decapitated without anesthesia and whole blood was collected. The aliquots of 1 ml each of the plasma were obtained from the blood by centrifugation at 2,500 rpm at 4° C. for 30 minutes and stored at −20° C. Plasma GH concentrations were determined by RIA using the rat GH [ I] assay system (Amersham).

Experiment [5] addresses T5, human somatostatin receptor SSTR1 (Homo sapiens, UniProt P30872).
T5 construct: expressed in transfected cells; host or cells: CHO (dhfr-) cells, strain SSTR1-8-3
The experiment can be described thus: Binding inhibition of 125I-somatostatin, CHO cell membrane fraction. The settings on record: 125I-somatostatin binding, 25° C. for 60 minutes, read-out: Activities for human somatostatin receptor (IC50 value) SSTR1. The method, then:
as §1, §2, §3, §4, §5

T4 sequence (P31391 whole entry): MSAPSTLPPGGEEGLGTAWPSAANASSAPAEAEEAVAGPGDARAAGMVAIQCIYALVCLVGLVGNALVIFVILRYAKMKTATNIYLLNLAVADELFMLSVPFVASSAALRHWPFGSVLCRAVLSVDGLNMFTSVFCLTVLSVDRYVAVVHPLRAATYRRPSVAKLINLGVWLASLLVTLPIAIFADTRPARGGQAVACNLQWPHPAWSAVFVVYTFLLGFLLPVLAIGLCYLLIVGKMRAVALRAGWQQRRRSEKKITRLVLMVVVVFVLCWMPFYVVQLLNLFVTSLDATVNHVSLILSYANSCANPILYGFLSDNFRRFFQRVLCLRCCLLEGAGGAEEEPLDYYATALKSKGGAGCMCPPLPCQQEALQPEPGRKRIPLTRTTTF
T2 sequence (P32745 whole entry): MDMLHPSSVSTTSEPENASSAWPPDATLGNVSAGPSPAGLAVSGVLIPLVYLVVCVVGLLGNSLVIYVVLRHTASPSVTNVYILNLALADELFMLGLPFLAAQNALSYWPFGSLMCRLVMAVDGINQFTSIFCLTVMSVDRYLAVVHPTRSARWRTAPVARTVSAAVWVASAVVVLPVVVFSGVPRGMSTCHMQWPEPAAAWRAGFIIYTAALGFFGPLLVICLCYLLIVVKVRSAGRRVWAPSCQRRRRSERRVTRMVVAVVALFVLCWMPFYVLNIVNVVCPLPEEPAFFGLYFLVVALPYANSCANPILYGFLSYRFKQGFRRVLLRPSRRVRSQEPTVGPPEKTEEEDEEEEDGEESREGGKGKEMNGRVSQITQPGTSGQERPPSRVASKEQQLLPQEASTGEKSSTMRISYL
T1 sequence (P30874 whole entry): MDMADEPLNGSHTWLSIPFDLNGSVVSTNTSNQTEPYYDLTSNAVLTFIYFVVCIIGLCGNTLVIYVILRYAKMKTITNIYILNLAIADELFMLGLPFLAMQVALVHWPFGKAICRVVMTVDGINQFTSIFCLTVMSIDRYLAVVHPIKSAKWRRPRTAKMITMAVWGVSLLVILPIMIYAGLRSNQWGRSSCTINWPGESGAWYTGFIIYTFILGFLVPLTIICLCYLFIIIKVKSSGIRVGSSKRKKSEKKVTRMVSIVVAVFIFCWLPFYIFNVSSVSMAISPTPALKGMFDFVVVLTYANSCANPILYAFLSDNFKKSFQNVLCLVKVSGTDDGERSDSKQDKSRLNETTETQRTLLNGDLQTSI
T3 sequence (P35346 whole entry): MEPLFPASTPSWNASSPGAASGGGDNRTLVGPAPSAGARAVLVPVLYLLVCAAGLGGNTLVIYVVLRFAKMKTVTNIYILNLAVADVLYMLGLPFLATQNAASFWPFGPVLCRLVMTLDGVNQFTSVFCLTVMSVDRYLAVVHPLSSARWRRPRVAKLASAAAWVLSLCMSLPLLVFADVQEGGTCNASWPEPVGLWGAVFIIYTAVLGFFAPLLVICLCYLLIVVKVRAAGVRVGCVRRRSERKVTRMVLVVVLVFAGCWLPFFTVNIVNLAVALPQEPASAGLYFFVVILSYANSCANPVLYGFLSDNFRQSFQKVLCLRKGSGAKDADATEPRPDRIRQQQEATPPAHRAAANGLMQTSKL
T5 sequence (P30872 whole entry): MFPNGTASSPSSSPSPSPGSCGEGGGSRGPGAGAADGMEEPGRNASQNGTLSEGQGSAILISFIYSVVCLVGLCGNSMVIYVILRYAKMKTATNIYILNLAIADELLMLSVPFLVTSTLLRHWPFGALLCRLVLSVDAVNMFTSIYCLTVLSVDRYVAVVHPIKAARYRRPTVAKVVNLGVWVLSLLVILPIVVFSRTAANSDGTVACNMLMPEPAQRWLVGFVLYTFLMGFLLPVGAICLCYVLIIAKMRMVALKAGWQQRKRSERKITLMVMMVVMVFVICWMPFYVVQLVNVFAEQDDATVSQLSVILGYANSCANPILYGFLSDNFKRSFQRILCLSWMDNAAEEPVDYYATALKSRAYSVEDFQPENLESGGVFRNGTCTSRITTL

With `NCc1cccc(C2OC(CC(=O)NCc3ccccc3F)C(=O)N(Cc3ccc(-c4ccccc4)cc3)c3ccc(Cl)cc32)c1` (stereo not drawn) [Example 5, 3,5-Trans-N-(2-fluorobenzyl)-5-(3-aminomethylphenyl)-1-(4-biphenylmethyl)-7-chloro-2-oxo-1,2,3,5-tetrahydro-4,1-benzoxazepine-3-acetamide•monohydrochloride], the 50% inhibitory concentration (IC50) was found to be 100 nM in experiment [1], 3 nM in experiment [2], 0.7 nM in experiment [3] and 300 nM in experiment [4]. Moreover, the “Plasma GH concentrations mean ± SD” value in the experiment on Sprague-Dawley (SD) rats (four hours after administration, n = 5) worked out at 11.2 ± 6.5 ng/mL. Also, the “Plasma GH concentration versus control” value in the experiment with Sprague-Dawley (SD) rats (p<0.05) was “declined significantly”.

Consider `NCc1cccc(C2OC(CC(=O)NCc3ccccc3F)C(=O)N(Cc3ccc(O)cc3)c3ccc(Cl)cc32)c1` (stereo not drawn) [Example 102, 3,5-Trans-N-(2-fluorobenzyl)-5-(3-aminomethylphenyl)-7-chloro-1-(4-hydroxybenzyl)-2-oxo-1,2,3,5-tetrahydro-4,1-benzoxazepine-3-acetamide•monohydrochloride], for which the IC50 in experiment [5] was above 1000 nM; in experiment [1], 60 nM; in experiment [2], 80 nM; in experiment [3], 0.1 nM; in experiment [4], 300 nM.

As usually defined, the IC50 is the concentration needed to halve the response being measured.
